One assay has as its target NADPH oxidase 1 (Homo sapiens, UniProt Q9Y5S8). The assay can be described thus: Late-stage luminescence-based cell-based dose response assay to identify inhibitors of NADPH oxidase 1 (NOX1): Synthesized analogs 2. Type of assay: functional.
Assay [1] can be described thus: Counterscreen for activators of the function of SWI/SNF related, matrix associated, actin dependent regulator of chromatin, subfamily a, member 2 (SMARCA2, BRM): Luminescence-based cell-based high throughput dose response assay to identify non-selective compounds using the VP16 reporter assay. It is filed as functional. (In general: Counterscreens check selectivity or assay interference.)

Assay [2] deals with SWI/SNF-related matrix-associated actin-dependent regulator of chromatin subfamily A member 2 (Homo sapiens, UniProt P51531). The experiment in a line: Luminescence-based cell-based high throughput dose response assay to identify activators of the function of SWI/SNF related, matrix associated, actin dependent regulator of chromatin, subfamily a, member 2 (SMARCA2, BRM). It is filed as functional.

In assay [3] the test system is Vero. The assay can be described thus: cells. It is filed as functional. The following applies: Chlorocebus sabaeus.
The subject of assay [4] is Vero. The assay can be described thus: host cell cytotoxicity of antiviral hits, dose response, cytotoxicity control for West Nile virus antiviral project, secondary assay (AID 1650). Type of assay: functional. To be noted: Chlorocebus sabaeus.
The target in assay [5] is T1, Bcl-2-related protein A1 (Mus musculus, UniProt Q07440).
T1 sequence (Q07440 whole entry): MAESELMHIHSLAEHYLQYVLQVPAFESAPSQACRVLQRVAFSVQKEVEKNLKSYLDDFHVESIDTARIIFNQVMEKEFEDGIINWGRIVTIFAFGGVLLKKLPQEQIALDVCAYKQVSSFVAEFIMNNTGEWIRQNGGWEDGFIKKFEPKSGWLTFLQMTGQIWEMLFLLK
The assay can be described thus: Bfl-1 inhibitors blocking BH3 peptide binding, confirmation, biochemical, TR-FRET, mouse Bfl-1 (AID 621).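 Further: TR-FRET binding of GST-Bfl-1 to FITC-labelled Bid peptide via terbium antibody.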

Assay [6] concerns the target T1, Bcl-2-related protein A1. The experiment in a line: Bfl-1 binding inhibitors, SAR follow-up, biochemical, fluorescence polarization (AID 1070).
Assay [7] deals with Glyceraldehyde-3-phosphate dehydrogenase (Homo sapiens, UniProt P04406).
Assay [8] addresses T2, Carboxy-terminal domain RNA polymerase II polypeptide A small phosphatase 1 (Homo sapiens, UniProt Q9GZU7).
T2 sequence (Q9GZU7 whole entry): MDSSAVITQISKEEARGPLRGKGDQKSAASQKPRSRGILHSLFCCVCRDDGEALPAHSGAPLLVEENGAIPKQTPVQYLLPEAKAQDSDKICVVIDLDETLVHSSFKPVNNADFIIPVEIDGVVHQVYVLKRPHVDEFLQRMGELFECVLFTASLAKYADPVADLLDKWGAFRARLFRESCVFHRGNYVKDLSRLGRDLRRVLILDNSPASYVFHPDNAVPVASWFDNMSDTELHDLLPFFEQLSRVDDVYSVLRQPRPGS
The assay can be described thus: inhibitors of CTDSP1, concentration-response testing, biochemical assay, absorbance-based, actives from ultra-high-throughput screening (AID 540297). Type of assay: functional.

In assay [9] the target is Induced myeloid leukemia cell differentiation protein Mcl-1 (Homo sapiens, UniProt Q07820). The experiment in a line: MCL1-BIM BH3 interaction inhibitors, dose response, biochemical, fluorescence polarization, BIM-BH3 peptide, 1536-well (AID 2217). (In fluorescence polarisation assays a small probe gives low polarisation when free and higher when bound to something large.)

Assay [10] deals with T3, Small ubiquitin-related modifier 1 (Homo sapiens, UniProt P63165). The assay can be described thus: inhibitors of SUMO1 peptide binding, dose response, biochemical, fluorescence polarization, uHTS hits (AID 624382). It is filed as functional. The following applies: read-out: IC50_Mean.
The target of another assay is T4, Caspase-6 (Homo sapiens, UniProt P55212).
T4 sequence (P55212 whole entry): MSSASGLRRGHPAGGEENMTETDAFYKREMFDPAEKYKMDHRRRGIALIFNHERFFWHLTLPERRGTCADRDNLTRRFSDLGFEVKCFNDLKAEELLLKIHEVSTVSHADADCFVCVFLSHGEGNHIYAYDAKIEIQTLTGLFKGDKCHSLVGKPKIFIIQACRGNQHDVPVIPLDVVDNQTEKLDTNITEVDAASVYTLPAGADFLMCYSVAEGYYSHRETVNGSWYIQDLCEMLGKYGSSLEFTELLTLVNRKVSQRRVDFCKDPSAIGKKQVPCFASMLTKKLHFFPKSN
The assay can be described thus: human caspase-6 inhibitors, dose response, biochemical, VEID-R110 fluorescence, cherry-pick (AID 720632).

Assay [11] concerns the target T3, Small ubiquitin-related modifier 1. The experiment in a line: inhibitors of SUMO1 partner interactions, dose response, biochemical, FRET (AID 624383). The following applies: read-out: IC50_Mean. It is filed as functional.
A further assay has as its target Bcl-2-like protein 1 (Homo sapiens, UniProt Q07817). The assay can be described thus: BCL-XL inhibitors, dose response, selectivity assay for MCL1 inhibitor project, biochemical, fluorescence polarization, 1536-well (AID 2218).
The nature of assay [12]: M. tuberculosis H37Rv growth inhibitors, H37Rv strain (AID 1626). It is filed as functional.
The target of assay [13] is Voltage-dependent T-type calcium channel subunit alpha-1H (Homo sapiens, UniProt O95180). Type of assay: functional.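 Further: channel activity triggered by adding a high calcium stimulation buffer.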
The test system of the next assay is P388/ADR. The experiment in a line: cells. Type of assay: functional. To be noted: Mus musculus.
The next assay has as its target Cytochrome P450 2C9 (Homo sapiens, UniProt P11712). To be noted: Potency.
The nature of assay [14]: cytotoxicity in KRAS-transformed pancreatic duct cells, primary screen, cell-based, fluorescence, HTS (AID 431). Type of assay: functional. The following applies: Homo sapiens.
Assay [15] has as its system Streptococcus sp. 'group A'. The experiment in a line: growth inhibition of control SK(-) GAS strain, dose response, counter-screen for streptokinase expression inhibitor project, luminescence, kanamycin, BacTiterGlo, confirmation (AID 1900). Type of assay: functional, organism-based.
The next assay concerns the target Galanin receptor type 2 (Homo sapiens, UniProt O43603). The experiment in a line: Dose Response cell-based high-throughput screening assay to identify agonists of galanin receptor 2 (GALR2). [Related pubchem assays: 864 ]. Type of assay: functional.
For assay [16], the target named is Dual specificity tyrosine-phosphorylation-regulated kinase 1A (Rattus norvegicus, UniProt Q63470). Type of assay: biochemical, Homo sapiens.
In another assay the test system is INS1. The experiment in a line: beta cell apoptosis inhibitors, cytokine rescue, dose response, luminescence, retest (AID 449756).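 Further: cell death triggered by IL-1 beta plus TNF-alpha plus IFN-gamma mixture; protective hits raise ATP signal compared with cytokine alone wells.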 Type of assay: functional, cell-based. The following applies: Rattus norvegicus.
Assay [17] in a line: cytotoxicity in HPDE-C7 cells, cell-based, fluorescence, HTS (AID 430). Type of assay: functional. The following applies: Homo sapiens.
For a further assay, the target named is T5, Streptokinase A (Streptococcus pyogenes serotype M1, UniProt P10520).
T5 sequence (P10520 whole entry): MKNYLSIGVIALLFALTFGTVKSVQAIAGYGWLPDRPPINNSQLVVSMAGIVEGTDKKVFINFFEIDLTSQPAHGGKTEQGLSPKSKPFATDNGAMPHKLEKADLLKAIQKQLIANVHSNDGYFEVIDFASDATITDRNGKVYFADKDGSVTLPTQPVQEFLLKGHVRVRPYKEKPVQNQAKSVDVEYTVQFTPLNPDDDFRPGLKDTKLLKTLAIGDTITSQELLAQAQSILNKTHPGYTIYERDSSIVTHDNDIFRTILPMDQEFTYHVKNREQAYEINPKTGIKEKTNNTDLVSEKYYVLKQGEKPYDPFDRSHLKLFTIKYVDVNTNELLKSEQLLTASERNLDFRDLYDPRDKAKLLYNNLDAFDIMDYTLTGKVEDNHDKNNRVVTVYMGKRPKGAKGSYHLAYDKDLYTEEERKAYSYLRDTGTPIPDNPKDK
The assay can be described thus: S. pyogenes streptokinase expression inhibitors, potency, dose response, plasminogen activation absorbance, OD405 (AID 1914).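 Further: secreted streptokinase activity via plasminogen activation per viability signal from cell pellet.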 Type of assay: functional, Streptococcus pyogenes M1 GAS.

The nature of assay [18]: growth suppression of PTEN-null colon cells, dose response, cell-based, HCT116 PTEN knockout (AID 1047).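 Further: HCT116 colon tumor cells with PTEN knocked out; cells exposed to compound for 60 hours before readout; potency for loss of cell viability measured by luminescence.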 Type of assay: functional.
A further assay concerns Streptococcus. The experiment in a line: Group A Streptococcus viability loss, dose response, counter-screen for streptokinase expression inhibitor project, luminescence, BacTiterGlo (AID 1915).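 Further: potency for reduction of bacterial viability or growth.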 Type of assay: functional, organism-based.
In a further assay the test system is P388. The assay can be described thus: cells. The following applies: Mus musculus. Type of assay: functional.
Assay [19] in a line: Luminescence Cell-Based Dose Response HTS to Identify Inhibitors of 5'UTR Stem-Loop Driven Prion Protein mRNA Translation in H4 Neuroglioblastoma Cells. [Related pubchem assays: 1827 (Project Summary), 1813 (Primary HTS)]. It is filed as functional.
Assay [20] in a line: growth suppression of beta-catenin-knockout colon cells, dose response, cell-based, HCT116, human colon tumor (AID 1045).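 Further: HCT116 colon tumor cells with beta catenin knocked out; cells exposed to compound for 60 hours.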 Type of assay: functional.
The test system of a further assay is SN12K1. The assay can be described thus: cells. It is filed as functional. The following applies: Homo sapiens.

The record followed here is ChEMBL document CHEMBL1201862, “PubChem BioAssay data set” (2004).

Activity calls are given as the source filed them.

What is called EC50 is the concentration giving half of the maximal effect. As usually defined, the CC50 is the concentration at which the toxic effect on the cells reaches its halfway point. What is called AC50 is the midpoint of the concentration-response curve, whichever way the signal moves. The GI50 is the concentration that inhibits growth by half.

T3 sequence (P63165 whole entry): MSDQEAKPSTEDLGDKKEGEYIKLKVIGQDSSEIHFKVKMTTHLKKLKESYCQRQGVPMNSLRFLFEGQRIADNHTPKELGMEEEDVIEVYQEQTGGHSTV
Chain of Induced myeloid leukemia cell differentiation protein Mcl-1 (Q07820 whole entry): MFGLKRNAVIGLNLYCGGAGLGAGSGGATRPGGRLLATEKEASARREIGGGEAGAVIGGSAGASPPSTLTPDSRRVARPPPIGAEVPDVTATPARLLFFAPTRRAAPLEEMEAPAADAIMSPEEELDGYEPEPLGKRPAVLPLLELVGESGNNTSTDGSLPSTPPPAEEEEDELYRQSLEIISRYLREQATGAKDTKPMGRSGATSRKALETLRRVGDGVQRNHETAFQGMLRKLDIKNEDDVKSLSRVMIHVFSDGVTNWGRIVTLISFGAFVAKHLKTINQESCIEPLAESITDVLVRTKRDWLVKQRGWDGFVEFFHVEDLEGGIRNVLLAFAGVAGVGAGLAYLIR
Chain of Cytochrome P450 2C9 (P11712 whole entry): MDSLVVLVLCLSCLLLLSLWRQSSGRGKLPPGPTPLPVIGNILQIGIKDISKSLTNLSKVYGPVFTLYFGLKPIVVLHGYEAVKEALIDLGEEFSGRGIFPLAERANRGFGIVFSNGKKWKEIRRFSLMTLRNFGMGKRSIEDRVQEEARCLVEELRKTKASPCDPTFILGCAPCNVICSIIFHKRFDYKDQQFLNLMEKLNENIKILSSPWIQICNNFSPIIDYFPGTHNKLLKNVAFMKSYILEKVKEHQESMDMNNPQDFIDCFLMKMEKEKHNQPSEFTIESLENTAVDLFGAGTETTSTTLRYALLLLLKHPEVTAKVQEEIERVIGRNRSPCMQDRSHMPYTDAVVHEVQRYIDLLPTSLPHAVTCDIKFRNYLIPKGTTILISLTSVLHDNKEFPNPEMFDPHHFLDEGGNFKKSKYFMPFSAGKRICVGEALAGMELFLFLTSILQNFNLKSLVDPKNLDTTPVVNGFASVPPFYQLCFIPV
Chain of NADPH oxidase 1 (Q9Y5S8 whole entry): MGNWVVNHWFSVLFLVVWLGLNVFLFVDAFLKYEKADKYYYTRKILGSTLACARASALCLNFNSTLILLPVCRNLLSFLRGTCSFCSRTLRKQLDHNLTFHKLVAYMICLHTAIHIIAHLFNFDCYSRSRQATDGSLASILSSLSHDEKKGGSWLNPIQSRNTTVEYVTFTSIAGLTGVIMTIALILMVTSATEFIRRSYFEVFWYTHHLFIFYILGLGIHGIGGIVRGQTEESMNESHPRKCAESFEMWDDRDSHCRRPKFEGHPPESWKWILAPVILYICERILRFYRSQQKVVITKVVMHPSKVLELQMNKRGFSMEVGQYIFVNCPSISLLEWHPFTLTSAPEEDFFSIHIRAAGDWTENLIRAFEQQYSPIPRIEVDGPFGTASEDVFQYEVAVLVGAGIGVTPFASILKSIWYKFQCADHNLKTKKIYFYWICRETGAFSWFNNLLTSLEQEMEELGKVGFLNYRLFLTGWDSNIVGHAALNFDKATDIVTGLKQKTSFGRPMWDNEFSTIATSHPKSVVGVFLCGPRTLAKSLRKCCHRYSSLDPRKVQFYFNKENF
Chain of Glyceraldehyde-3-phosphate dehydrogenase (P04406 whole entry, the tested form may be a part): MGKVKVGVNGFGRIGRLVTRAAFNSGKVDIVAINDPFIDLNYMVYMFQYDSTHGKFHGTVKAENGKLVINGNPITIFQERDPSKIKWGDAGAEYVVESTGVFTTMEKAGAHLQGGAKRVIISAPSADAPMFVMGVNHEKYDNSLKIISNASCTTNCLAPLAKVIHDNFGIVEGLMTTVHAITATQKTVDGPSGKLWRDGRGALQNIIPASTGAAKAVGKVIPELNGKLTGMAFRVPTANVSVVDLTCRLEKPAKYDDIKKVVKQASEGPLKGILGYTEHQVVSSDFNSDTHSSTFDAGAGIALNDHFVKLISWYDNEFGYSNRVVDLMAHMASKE
Chain of SWI/SNF-related matrix-associated actin-dependent regulator of chromatin subfamily A member 2 (P51531 whole entry): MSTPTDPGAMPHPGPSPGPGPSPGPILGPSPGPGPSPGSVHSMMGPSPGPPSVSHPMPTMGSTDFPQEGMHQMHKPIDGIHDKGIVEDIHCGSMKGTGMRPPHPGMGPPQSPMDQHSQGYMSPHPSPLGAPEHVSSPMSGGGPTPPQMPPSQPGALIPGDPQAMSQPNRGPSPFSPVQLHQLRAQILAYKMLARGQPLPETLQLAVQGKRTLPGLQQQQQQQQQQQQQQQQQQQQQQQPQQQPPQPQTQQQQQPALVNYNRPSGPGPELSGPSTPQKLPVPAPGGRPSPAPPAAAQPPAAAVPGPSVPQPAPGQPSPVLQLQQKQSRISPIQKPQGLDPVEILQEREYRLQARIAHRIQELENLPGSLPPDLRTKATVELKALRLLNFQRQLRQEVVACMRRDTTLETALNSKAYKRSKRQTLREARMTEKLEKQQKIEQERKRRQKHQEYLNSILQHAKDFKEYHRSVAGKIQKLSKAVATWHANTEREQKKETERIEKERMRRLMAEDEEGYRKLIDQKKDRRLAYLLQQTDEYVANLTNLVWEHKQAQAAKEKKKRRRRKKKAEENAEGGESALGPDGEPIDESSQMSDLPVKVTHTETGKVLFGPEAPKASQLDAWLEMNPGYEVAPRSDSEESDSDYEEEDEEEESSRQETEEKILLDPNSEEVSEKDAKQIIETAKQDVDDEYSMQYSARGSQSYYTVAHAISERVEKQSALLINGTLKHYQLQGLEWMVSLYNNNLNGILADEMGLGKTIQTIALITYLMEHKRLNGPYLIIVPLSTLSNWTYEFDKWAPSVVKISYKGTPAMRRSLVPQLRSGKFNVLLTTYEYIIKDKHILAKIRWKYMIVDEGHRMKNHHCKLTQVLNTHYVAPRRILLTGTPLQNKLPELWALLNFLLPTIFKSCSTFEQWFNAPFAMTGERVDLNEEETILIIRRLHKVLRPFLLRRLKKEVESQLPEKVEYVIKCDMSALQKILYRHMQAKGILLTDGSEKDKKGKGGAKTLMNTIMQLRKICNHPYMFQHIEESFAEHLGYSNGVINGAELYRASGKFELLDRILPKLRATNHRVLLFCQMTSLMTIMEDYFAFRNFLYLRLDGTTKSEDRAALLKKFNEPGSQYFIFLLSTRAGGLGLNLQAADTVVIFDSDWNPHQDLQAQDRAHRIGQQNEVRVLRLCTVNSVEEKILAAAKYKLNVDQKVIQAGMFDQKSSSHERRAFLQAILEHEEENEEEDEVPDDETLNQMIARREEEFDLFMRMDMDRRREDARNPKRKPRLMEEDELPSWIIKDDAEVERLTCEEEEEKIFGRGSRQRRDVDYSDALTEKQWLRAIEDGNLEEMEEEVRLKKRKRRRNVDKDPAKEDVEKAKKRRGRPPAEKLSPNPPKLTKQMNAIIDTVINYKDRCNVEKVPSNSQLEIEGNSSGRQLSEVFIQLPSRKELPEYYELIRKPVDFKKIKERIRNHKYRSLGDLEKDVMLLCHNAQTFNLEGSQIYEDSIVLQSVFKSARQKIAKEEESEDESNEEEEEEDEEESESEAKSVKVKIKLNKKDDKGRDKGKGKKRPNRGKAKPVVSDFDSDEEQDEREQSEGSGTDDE
Chain of Bcl-2-like protein 1 (Q07817 whole entry): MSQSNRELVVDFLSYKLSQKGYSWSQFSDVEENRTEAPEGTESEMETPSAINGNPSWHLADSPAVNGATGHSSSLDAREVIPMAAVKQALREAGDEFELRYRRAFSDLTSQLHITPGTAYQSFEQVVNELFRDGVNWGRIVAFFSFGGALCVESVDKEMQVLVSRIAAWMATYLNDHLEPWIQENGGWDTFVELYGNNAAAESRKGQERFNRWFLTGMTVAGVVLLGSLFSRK
Chain of Galanin receptor type 2 (O43603 whole entry): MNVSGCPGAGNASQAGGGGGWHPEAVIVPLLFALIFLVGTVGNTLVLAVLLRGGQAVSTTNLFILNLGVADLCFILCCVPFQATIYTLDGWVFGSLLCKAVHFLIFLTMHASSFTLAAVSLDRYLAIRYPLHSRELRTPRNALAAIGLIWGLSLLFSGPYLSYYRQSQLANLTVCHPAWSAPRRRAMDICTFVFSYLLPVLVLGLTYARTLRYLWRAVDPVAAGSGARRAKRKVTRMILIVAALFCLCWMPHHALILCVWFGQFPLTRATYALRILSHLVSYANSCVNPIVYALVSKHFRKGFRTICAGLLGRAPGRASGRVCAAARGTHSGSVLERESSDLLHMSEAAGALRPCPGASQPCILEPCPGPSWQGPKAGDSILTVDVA

Regarding `C=CC(=O)Nc1ccc2c(c1)Sc1ccccc1N2C`, the IC50 at NADPH oxidase 1 was 2.38 µM (active).

For `COCCNC(=O)/C(C#N)=C/C=C/c1ccccc1[N+](=O)[O-]`, the EC50 in assay [1] and in [2] was > 91.1 µM (inactive) each time. In addition, the figures for the CC50 in the assay with Vero [3] and in the assay on Vero [4] were 16 µM (active) and 13.4 µM (active), respectively.

Take `O=C1C(Cl)=C(N2CCN(CCO)CC2)C(=O)N1c1cccc([N+](=O)[O-])c1`: the values for the IC50 (at Bcl-2-related protein A1 [5]; at Bcl-2-related protein A1 [6]; in assay [7]) were 10.8 µM (active), 30.9 µM (active) and > 100 µM (not active), respectively.

As to `Cc1ccc(C)c(S(=O)(=O)Nc2ccc3oc(C)c(C(=O)O)c3c2)c1`, the IC50 is 3.21 µM (active) in [8]; 18.2 µM (not active) in assay [9]; > 66.6 µM (inactive) in assay [10]; 11.3 µM (active) in assay [11]; 93.3 µM (not active) against Bcl-2-like protein 1. At Caspase-6, the concentration at half-maximal activity (AC50) was 3.67 µM (active).

In the case of `Cc1ccccc1NC(=O)Nc1ccc(C(F)(F)F)cc1`, the IC50 in [12] is > 100 µM (active).

`Cc1c2ccncc2c(C)c2c1[nH]c1ccccc12` [ELLIPTECINE]: the EC50 is 3.99 µM (active) in assay [13]; 2.4 µM (active) in assay [14]; 2.25 µM (active) in [15]; > 55.7 µM (not active) on Galanin receptor type 2; 6.17 µM (active) in assay [17]; > 150 µM (not active) at Streptokinase A. Moreover, the EC50 in assay [18] is 0.177 µM (active); with Streptococcus it was 7.7 µM (active); in assay [19], > 120 µM (not active); in assay [20], 0.117 µM (active). Besides, the GI50 in the assay on P388/ADR is 0.824 µM (active); in the assay on P388 it was 0.383 µM (active); in the assay with SN12K1, 0.56 µM (active). Moreover, the AC50 at Cytochrome P450 2C9 is 39.8 µM (inconclusive); in assay [16], 0.231 µM (active); with INS1, 2.12 µM (active).
